In publication PMC11243672, “New 3-(Dibenzyloxyphosphoryl)isoxazolidine Conjugates of N1-Benzylated Quinazoline-2,4-diones as Potential Cytotoxic Agents against Cancer Cell Lines” (Molecules, 2024):

Columns and labels:
[1] = tested on: breast cancer cells (MCF-7); test: MTS-based cytotoxicity assay, MCF-7; type: cell-based, human; settings: 72 h treatment, 0.205–50 μM, mean ± SEM
Experimental: (§1) In this study, we applied the most extensively used MTS-based assay, which provides a valuable tool for determining cell viability by evaluating metabolic activity. The cytostatic activity of the tested compounds was defined as the half-maximal inhibitory concentration (IC50) causing a 50% decrease in the metabolic activity of the cells. It was determined against breast cancer (MCF-7), fibrosarcoma (HT-1080), and prostate cancer (PC-3) cells.
(§2) The tested compounds were tested against three different human cancer cell lines (breast adenocarcinoma MCF-7 ATCC® HTB-22^TM, fibrosarcoma HT-1080 ATCC® CCL121^TM, and prostate adenocarcinoma PC-3 ATCC® CRL-1435^TM). For the cell viability experiment, cells were seeded in transparent 96-well plates (FALCON no. 353072, Corning, Durham, NC, USA) in MEM (Gibco no. 31095-029, UK) supplemented with 10% heat-inactivated FBS (Gibco no. 10500-064, UK). The cell seeding density was as follows: MCF-7 12,000 cells/well, HT-1080 7000 cells/well, PC-3 10,000 cells/well. Cells were seeded one day before treatment with the tested compounds and cultured overnight. The confluence on the treatment day was around 30%. The tested compounds were dissolved in DMSO as 10 mM stock solutions and kept under −4 °C. On the day of experimentation, the medium was removed and replaced with a fresh one that contained the following: (1) dimethylsulfoxide (DMSO < 0.1%, vehicle control (Veh)); (2) increasing the concentration of compounds (0.205–50 μM, performed as a 2.5-fold serial dilution for dose–response analysis). Treatment with compounds was carried out for 72 h. Each treatment was replicated three times in a single experiment, with three separate experiments conducted. (n = 9). When significant variability in the results occurred, an additional test was performed on certain compounds. During the incubation, the cells were examined under an inverted microscope to check if the compounds had not precipitated in the culture medium. The inhibitory effect of compounds on the cell was examined using an MTS-based assay (Promega, Madison, WI, USA) following the manufacturer’s protocol. The absorbance was measured at 490 nm using Tecan Spark’s multimode plate reader (Tecan, Männedorf, Switzerland). A reference wavelength of 630 nm was used to subtract the background. IC50 values were calculated by fitting a non-linear regression to a sigmoidal dose–response curve in GraphPad Prism version 8.0.1.

[2] = tested on: prostate cancer cells (PC-3); test: MTS-based cytotoxicity assay, PC-3; type: cell-based, human; settings: 72 h treatment, 0.205–50 μM, mean ± SEM
Experimental: as §1, §2

[3] = tested on: fibrosarcoma cells (HT-1080); test: MTS-based cytotoxicity assay, HT-1080; type: cell-based, human; settings: 72 h treatment, 0.205–50 μM, mean ± SEM
Experimental: as §1, §2

[4] = tested on: HCT-116; set-up: method as in PMID 37903949; settings: cytotoxic activity; cited from earlier work
[5] = tested on: human embryonic kidney cells (HEK293); test: Safety study in vitro (MTS viability), HEK293; type: cell-based; settings: 0.205–50 μM, 72 h
Experimental: (§3) In drug development, particular attention should be paid to studying the safety profile of compounds. Promising drug candidates should not cause adverse effects on essential organ systems like the liver, kidney, or healthy cells in general. Systemic toxicity of the compound is the main factor limiting its therapeutic application and efficiency. In our study, a preliminary study on nephrotoxicity and hepatotoxicity was evaluated in human embryonic kidney cells (HEK293, ATCC® CRL1573™) and human hepatoma cells (HepG2, ATCC® HB8065™), respectively. HEK293 is commonly used to evaluate the cytotoxicity of nephrotoxic compounds [42]. HepG2 is a well-established in vitro human cell system to study liver toxicity. We also used healthy human skin fibroblast (HSF) to extend the cytotoxicity profile. All three cell lines were cultured in DMEM (Gibco no. 61965-026, UK) supplemented with 10% FBS (Gibco no. 10500-064, UK). For the experiment, cells were seeded (8 × 10^3 cells/100μL/well) in transparent 96-well plates (FALCON no. 353072, Corning, Durham, […], USA) and cultured overnight. […] DOX was a reference compound that adversely affected the liver, kidney, and healthy cells. Treatment with compounds was carried out for 72 h. Cell viability was examined using an MTS-based CellTiter96® AQueous One Solution Cell Proliferation Assay (Promega, Madison, WI, USA) following the manufacturer’s protocol.

[6] = tested on: human skin fibroblast (HSF); test: Safety study in vitro (MTS viability), HSF; type: cell-based; settings: 0.205–50 μM, 72 h
Experimental: as §3

[7] = tested on: human hepatoma cells (HepG2); test: Safety study in vitro (MTS viability), HepG2; type: cell-based; settings: 0.205–50 μM, 72 h
Experimental: as §3

[8] = tested on: colorectal adenoma cancer cell line (HT-29); set-up: method as in doi:10.1016/j.tet.2006.12.076; settings: cancer cell line growth inhibition; cited from earlier work

For O=c1c2ccccc2n(CC2CC(P(=O)(OCc3ccccc3)OCc3ccccc3)N(Cc3ccccc3)O2)c(=O)n1Cc1cccc([N+](=O)[O-])c1 (stereo not drawn) [cis-16f/trans-16f (96:4), Dibenzyl cis- and trans-2-benzyl-5-((3-(3-nitrobenzyl)-2,4-dioxo-3,4-dihydroquinazolin-1(2H)-yl)methyl)isoxazolidin-3-yl)phosphonate], the IC50 ([1]; Homo sapiens, MCF7, 72 h) was 91.7 ± 1.47 µM, the IC50 ([2]; Homo sapiens, 72 h) was 24.8 ± 2.15 µM and the IC50 ([3]; Homo sapiens, HT-1080, 72 h) was 17.1 ± 5.73 µM.
In the case of COc1cc2nccc(Oc3ccc(NC(=O)C4(C(=O)Nc5ccc(F)cc5)CC4)cc3)c2cc1OC [cabozantinib, reference compound], the IC50 [4] is given as 16.4 ± 0.86 µM.
For O=c1c2ccccc2n(CC2CC(P(=O)(OCc3ccccc3)OCc3ccccc3)N(Cc3ccccc3)O2)c(=O)n1Cc1ccccc1F (stereo not drawn) [cis-16b/trans-16b (90:10), Dibenzyl cis- and trans-5-((3-(2-fluorobenzyl)-3,4-dihydro-2,4-dioxoquinazolin-1(2H)-yl)methyl)-2-benzylisoxazolidin-3-yl-3-phosphonate], the IC50 ([1]; Homo sapiens, MCF7, 72 h) was 104 ± 7.38 µM, the “Cell viability, HEK293” value [5] was “did not affect cell viability” and the IC50 ([2]; Homo sapiens, 72 h) was 11.2 ± 1.99 µM. The IC50 ([3]; Homo sapiens, HT-1080, 72 h) was 27.3 ± 5.43 µM, the “Cell viability, HSF” value [6] was “no adverse effect was observed” and the “Cell viability, HepG2” value [7] was “did not affect cell viability”.
O=c1c2ccccc2n(C[C@@H]2C[C@@H](P(=O)(OCc3ccccc3)OCc3ccccc3)N(Cc3ccccc3)O2)c(=O)n1Cc1cccc(F)c1 (relative stereo) [trans-16c, Dibenzyl cis- and trans-5-((3-(3-fluorobenzyl)-3,4-dihydro-2,4-dioxoquinazolin-1(2H)-yl)methyl)-2-benzylisoxazolidin-3-yl-3-phosphonate] showed an IC50 ([1]; Homo sapiens, MCF7, 72 h) of 130 ± 9.97 µM, an IC50 ([2]; Homo sapiens, 72 h) of 16.4 ± 4.32 µM and an IC50 ([3]; Homo sapiens, HT-1080, 72 h) of 42.3 ± 3.48 µM.
In the case of O=c1c2ccccc2n(CC2CC(P(=O)(OCc3ccccc3)OCc3ccccc3)N(Cc3ccccc3)O2)c(=O)n1Cc1ccccc1[N+](=O)[O-] (stereo not drawn) [cis-16e/trans-16e (70:30), Dibenzyl cis- and trans-(2-benzyl-5-((3-(2-nitrobenzyl)-2,4-dioxo-3,4-dihydroquinazolin-1(2H)-yl)methyl)isoxazolidin-3-yl)phosphonate], the IC50 ([1]; Homo sapiens, MCF7, 72 h) is reported as 59.1 ± 3.77 µM, the IC50 ([2]; Homo sapiens, 72 h) is reported as 26.6 ± 4.69 µM and the IC50 ([3]; Homo sapiens, HT-1080, 72 h) is reported as 59.6 ± 0.36 µM.
For CO[C@@]12[C@H](COC(N)=O)C3=C(C(=O)C(C)=C(N)C3=O)N1C[C@@H]1N[C@@H]12 [Mitomycin C], the “GI, HT-29” value [8] is listed as 31%.
In the case of O=c1c2ccccc2n(CC2CC(P(=O)(OCc3ccccc3)OCc3ccccc3)N(Cc3ccccc3)O2)c(=O)n1Cc1ccccc1 (stereo not drawn) [cis-16a/trans-16a (97:3), Dibenzyl cis- and trans-2-benzyl-5-((3-benzyl-3,4-dihydro-2,4-dioxoquinazolin-1(2H)-yl)methyl)isoxazolidin-3-yl-3-phosphonate], the IC50 ([1]; Homo sapiens, MCF7, 72 h) is reported as 90.3 ± 4.57 µM, the “Cell viability, HEK293” value [5] is reported as “did not affect cell viability” and the IC50 ([2]; Homo sapiens, 72 h) is reported as 12.6 ± 5.56 µM. For the same compound, the IC50 [3] was 19.9 ± 8.13 µM, the “Cell viability, HSF” value [6] was “no adverse effect was observed” and the “Cell viability, HepG2” value [7] was “did not affect cell viability”.
In the case of COc1cccc2c1C(=O)c1c(O)c3c(c(O)c1C2=O)C[C@@](O)(C(=O)CO)C[C@@H]3O[C@H]1C[C@H](N)[C@H](O)[C@H](C)O1 [Doxorubicin, reference compound], the “Cell viability, HEK293” value [5] is reported as “significant cytotoxic effect”, the “Cell viability, HSF” value [6] is reported as “significant cytotoxic effect” and the “Cell viability, HepG2” value [7] is reported as “significant cytotoxic effect”.
Compound O=c1c2ccccc2n(CC2CC(P(=O)(OCc3ccccc3)OCc3ccccc3)N(Cc3ccccc3)O2)c(=O)n1Cc1ccc([N+](=O)[O-])cc1 (stereo not drawn) [cis-16g/trans-16g (88:12), Dibenzyl cis- and trans-(2-benzyl-5-((3-(4-nitrobenzyl)-2,4-dioxo-3,4-dihydroquinazolin-1(2H)-yl)methyl)isoxazolidin-3-yl)phosphonate] has an IC50 ([1]; Homo sapiens, MCF7, 72 h) of 116 ± 9.69 µM, an IC50 ([2]; Homo sapiens, 72 h) of 21.5 ± 4.63 µM and an IC50 ([3]; Homo sapiens, HT-1080, 72 h) of 16.4 ± 2.03 µM.
With O=c1c2ccccc2n(C[C@@H]2C[C@@H](P(=O)(OCc3ccccc3)OCc3ccccc3)N(Cc3ccccc3)O2)c(=O)n1Cc1cccc([N+](=O)[O-])c1 (relative stereo) [trans-16f, Dibenzyl cis- and trans-2-benzyl-5-((3-(3-nitrobenzyl)-2,4-dioxo-3,4-dihydroquinazolin-1(2H)-yl)methyl)isoxazolidin-3-yl)phosphonate] the IC50 ([1]; Homo sapiens, MCF7, 72 h) was 59.4 ± 0.78 µM, the IC50 ([2]; Homo sapiens, 72 h) was 18.1 ± 0.98 µM and the IC50 ([3]; Homo sapiens, HT-1080, 72 h) was 23.1 ± 9.22 µM.
O=c1c2ccccc2n(CC2CC(P(=O)(OCc3ccccc3)OCc3ccccc3)N(Cc3ccccc3)O2)c(=O)n1Cc1cccc(F)c1 (stereo not drawn) [cis-16c/trans-16c (90:10), Dibenzyl cis- and trans-5-((3-(3-fluorobenzyl)-3,4-dihydro-2,4-dioxoquinazolin-1(2H)-yl)methyl)-2-benzylisoxazolidin-3-yl-3-phosphonate] showed an IC50 ([1]; Homo sapiens, MCF7, 72 h) of 238 ± 20.7 µM, an IC50 ([2]; Homo sapiens, 72 h) of 17.6 ± 6.21 µM and an IC50 ([3]; Homo sapiens, HT-1080, 72 h) of 20.5 ± 1.56 µM.
O=c1c2ccccc2n(C[C@@H]2C[C@@H](P(=O)(OCc3ccccc3)OCc3ccccc3)N(Cc3ccccc3)O2)c(=O)n1Cc1ccc(F)cc1 (relative stereo) [trans-16d, Dibenzyl cis- and trans-5-((3-(4-fluorobenzyl)-3,4-dihydro-2,4-dioxoquinazolin-1(2H)-yl)methyl)-2-benzylisoxazolidin-3-yl-3-phosphonate] gave an IC50 ([1]; Homo sapiens, MCF7, 72 h) of 88.9 ± 3.86 µM, an IC50 ([2]; Homo sapiens, 72 h) of 13.9 ± 2.14 µM and an IC50 ([3]; Homo sapiens, HT-1080, 72 h) of 35.6 ± 3.03 µM.
Work on O=c1c2ccccc2n(CC2CC(P(=O)(OCc3ccccc3)OCc3ccccc3)N(Cc3ccccc3)O2)c(=O)n1Cc1ccccc1 (stereo not drawn) [trans-16a, Dibenzyl cis- and trans-2-benzyl-5-((3-benzyl-3,4-dihydro-2,4-dioxoquinazolin-1(2H)-yl)methyl)isoxazolidin-3-yl-3-phosphonate] yielded an IC50 [1] of 96 ± 4.66 µM, an IC50 [2] of 12.7 ± 3.45 µM and an IC50 [3] of 40.5 ± 5.44 µM.
Compound O=c1c2ccccc2n(CC2CC(P(=O)(OCc3ccccc3)OCc3ccccc3)N(Cc3ccccc3)O2)c(=O)n1Cc1ccc(F)cc1 (stereo not drawn) [cis-16d/trans-16d (96:4), Dibenzyl cis- and trans-5-((3-(4-fluorobenzyl)-3,4-dihydro-2,4-dioxoquinazolin-1(2H)-yl)methyl)-2-benzylisoxazolidin-3-yl-3-phosphonate] has an IC50 ([1]; Homo sapiens, MCF7, 72 h) of 116 ± 5.73 µM, an IC50 ([2]; Homo sapiens, 72 h) of 16.4 ± 3.69 µM and an IC50 ([3]; Homo sapiens, HT-1080, 72 h) of 10.4 ± 2.69 µM.
In the case of O=c1c2ccccc2n(C[C@@H]2C[C@@H](P(=O)(OCc3ccccc3)OCc3ccccc3)N(Cc3ccccc3)O2)c(=O)n1Cc1ccc([N+](=O)[O-])cc1 (relative stereo) [trans-16g, Dibenzyl cis- and trans-(2-benzyl-5-((3-(4-nitrobenzyl)-2,4-dioxo-3,4-dihydroquinazolin-1(2H)-yl)methyl)isoxazolidin-3-yl)phosphonate], the IC50 ([1]; Homo sapiens, MCF7, 72 h) is reported as 142 ± 5.11 µM, the IC50 ([2]; Homo sapiens, 72 h) is reported as 16.7 ± 3.48 µM and the IC50 ([3]; Homo sapiens, HT-1080, 72 h) is reported as 16.6 ± 3.11 µM.
Work on O=c1c2ccccc2n(C[C@@H]2C[C@@H](P(=O)(OCc3ccccc3)OCc3ccccc3)N(Cc3ccccc3)O2)c(=O)n1Cc1ccccc1[N+](=O)[O-] (relative stereo) [trans-16e, Dibenzyl cis- and trans-(2-benzyl-5-((3-(2-nitrobenzyl)-2,4-dioxo-3,4-dihydroquinazolin-1(2H)-yl)methyl)isoxazolidin-3-yl)phosphonate] yielded an IC50 ([1]; Homo sapiens, MCF7, 72 h) of 57.9 ± 8.36 µM, an IC50 ([2]; Homo sapiens, 72 h) of 26.6 ± 1.09 µM and an IC50 ([3]; Homo sapiens, HT-1080, 72 h) of 29.8 ± 4.75 µM.
